“Also recorded” adds a separate entry of the source.
Columns and labels:
[1] = system: zebrafish embryos and larvae; assay: Developmental exposure (2-3, 3-4 or 4-5 dpf) of zebrafish to modulators of calcineurin signaling, behavior imaged at 5 dpf; assay type: in vivo
Protocol: Zebrafish. Adult wild type zebrafish (Danio rerio) are maintained at Brown University as a genetically-diverse outbred strain in a mixed male and female population. Zebrafish embryos were collected and grown to larval stages as described previously. Thorn et al., Sci Rep 9, 13989 (2019). Embryos from 0-3 days post-fertilization (dpf) and larvae from 3-5 dpf were kept on a 12 hour light/12 hour dark cycle at 28.5° C. in 2 L culture trays with egg water, containing 60 mg/L sea salt (Instant Ocean) and 0.25 mg/L methylene blue in deionized water. Zebrafish embryos and larvae were randomly assigned to different experimental groups prior to experimental manipulation. The sex of embryos and larvae cannot be determined at such early stages because zebrafish use elusive polygenic factors for sex determination, and both males and females have juvenile ovaries between 2.5 and 4 weeks of development. Liew et al., Brief Funct Genomics 13(2), 172-187 (2014). Zebrafish larvae were imaged at 5 dpf when they are approximately 4 mm long, display a range of locomotor behaviors and consume nutrients available in the yolk sac. Clift et al., Zebrafish 11(5), 455-461 (2014).
Pharmacological treatments. Zebrafish embryos and larvae were treated with 10 μM CsA (cyclosporin A, Enzo Life Sciences), 1 μM FK506 (tacrolimus, Enzo Life Sciences), 1 μM rapamycin (Santa Cruz Biotechnology), 5 μM proINDY (Tocris Bioscience) or co-treatments of either 10 μM CsA+5 μM proINDY or 1 μM FK506+5 μM proINDY. […] Clift et al., Behav Brain Res, 282, 117-124 (2015). […] Robinson et al., J Appl Toxicol 37(12), 1438-1447 (2017). […] All administered compounds were diluted in egg water from 1000× stocks dissolved in dimethyl sulfoxide (DMSO). The corresponding DMSO concentration (1 μl DMSO/ml egg water) was used as a vehicle control. Embryos and larvae were treated during one of the following developmental stages: 2-3, 3-4, or 4-5 dpf. The embryos and larvae were treated in 10 cm Petri dishes for 24 hours, rinsed three times with egg water, and then transferred to new Petri dishes with egg water. Larvae that were treated from 4-5 dpf were rinsed and kept in egg water for 3 hours prior to imaging, typically from 10 am to 1 pm. All treatment groups were imaged at 5 dpf in egg water. For imaging, larvae were transferred to white 96-well ProxiPlates (PerkinElmer, 6006290) and were imaged for 3 hours, typically from 1-4 pm (FIG. 12).
Imaging of zebrafish larvae. Zebrafish larvae were imaged in a 384-well imaging system as described previously. Thorn et al., Sci Rep 9, 13989 (2019). Briefly, four 96-well ProxiPlates were placed on a glass stage inside a temperature-controlled cabinet, set at 28.5° C. The upper shelf of the cabinet holds a high-resolution camera (18-megapixel Canon EOS Rebel T6 with an EF-S 55-250 mm f/4.0-5.6 IS zoom lens), connected to a continuous power supply (Canon ACK-E10 AC Adapter) and controlled by a laptop computer. Images are acquired using Canon's Remote Capture software (EOS Utility, version 3), which is included with the camera. Every 6 seconds, the camera acquires a high-resolution image of larvae in the microplates (FIG. 12). Two small speakers (OfficeTec USB Computer Speakers Compact 2.0 System) are located speaker-side down on the glass stage. Speakers were connected by USB to the laptop computer and set to maximum volume (85 dBA).
Behavioral assay. Larval behaviors were imaged for 3 hours, as described previously. Thorn et al., Sci Rep 9, 13989 (2019). […] The PowerPoint started with a light background for 60 minutes without visual or acoustic stimuli, followed by 80 minutes with visual stimuli, 10 minutes without stimuli, and 30 minutes with acoustic stimuli (FIG. 12). Larvae were not exposed to visual stimuli and acoustic stimuli at the same time. The visual stimuli consisted of a series of lines that moved upwards or downwards in the microplates, in a horizontal plane. […]

[2] = system: zebrafish larvae; assay: Acute exposure of 5 dpf zebrafish larvae to modulators of calcineurin signaling, automated analysis of behavior; assay type: in vivo, Danio rerio
Protocol: Zebrafish larvae were treated at 5 dpf with various modulators of calcineurin signaling, starting 3 hours before imaging. The larvae were then imaged for a total of 3 hours using a behavioral assay with various visual and acoustic stimuli (FIG. 6). The behavioral assay started with a 1-hour period without stimuli, followed by 80 minutes with visual stimuli, 10 minutes without visual or acoustic stimuli, and 30 minutes with acoustic stimuli. Values of activity (% move) and position (% up) were averaged in individual larvae during 10-minute periods, for a total of 18 periods. These values were subsequently averaged between larvae in the same treatment group. We examined a total of 10 treatment groups. For clarity, only 3 treatment groups were graphed (FIG. 6), but all 10 treatment groups were analyzed in detail as shown in subsequent figures. […] The assay provides quantitative information on activity, visually-guided behaviors and acoustic startle responses.
To determine if larval zebrafish behavior is affected by modulation of calcineurin signaling, we imaged 5 day-old larvae in the following 10 treatment groups: 10 μM cyclosporine A (CsA), 1 μM tacrolimus (FK506), 5 or 10 μM proINDY, a combination of CsA+5 or 10 μM proINDY, or a combination of FK506+5 or 10 μM proINDY, DMSO as a vehicle control, and 1 μM rapamycin as a control for target specificity. Rapamycin and FK506 are both macrolide immunosuppressants with similar structures, however, rapamycin affects Target of Rapamycin (TOR) signaling instead of calcineurin signaling. Vellanki et al., Front Mol Biosci 7, 588913 (2020). The concentrations of CsA, FK506 and rapamycin were selected based on prior studies in zebrafish embryos and larvae. Clift et al., Behav Brain Res 282, 117-124 (2015). The two concentrations of proINDY, a membrane-permeable form of INDY (inhibitor of DYRK), were selected based on studies in cell lines and Xenopus embryos. Ogawa et al., Nat Commun 1, 86 (2010).
The research project has been conducted in accordance with local and federal guidelines for ethical and humane use of animals and has been reviewed and approved by the Brown University Institutional Animal Care and Use Committee. Zebrafish (Danio rerio) embryos were collected and grown to larval stages as previously described. Thorn et al., Sci Rep 9, 13989 (2019). Adult wild-type zebrafish are maintained at Brown University as a genetically-diverse outbred strain in a mixed male and female population. Zebrafish embryos from 0-3 days post-fertilization (dpf) and zebrafish larvae from 3-5 dpf were maintained at 28.5° C. in 2 L culture trays with egg water, containing 60 mg/L sea salt (Instant Ocean) and 0.25 mg/L methylene blue in deionized water. Embryos and larvae were kept on a 12 hour light/12 hour dark cycle and were randomly assigned to different experimental groups prior to experimental manipulation. The sex of embryos and larvae cannot be determined at such early stages because zebrafish use elusive polygenic factors for sex determination, and both males and females have juvenile ovaries between 2.5 and 4 weeks of development. Zebrafish larvae were imaged at 5 dpf when the larvae display a range of locomotor behaviors and consume nutrients available in the yolk sac. Larvae are approximately 4 mm long at the 5 dpf stage.
Cyclosporine (cyclosporin A, Enzo Life Sciences), FK506 (tacrolimus, Enzo Life Sciences), rapamycin (Santa Cruz Biotechnology) and proINDY (Tocris Bioscience) were diluted in egg water from 1000× stocks dissolved in dimethyl sulfoxide (DMSO). DMSO (1 μl/ml DMSO) was added to the single treatments and the corresponding DMSO concentration was used as a vehicle control for all solutions. Larvae were exposed at 5 dpf to treatment solutions or DMSO for a total of 6 hours. Larvae were first treated in a Petri dish for 2 hours, transferred with the treatment solution to white 96-well ProxiPlates (PerkinElmer, 6006290) for 1 hour, and then imaged in the treatment solution for 3 hours. […]

[3] = system: zebrafish larvae; assay: Behavioral screen of 190 FDA-approved drugs in 5-day-old zebrafish larvae (activity, optomotor and acoustic responses); assay type: in vivo, Danio rerio; details: 10 μM, 5 dpf larvae, vs DMSO
Source text: Zebrafish. The research project has been conducted in accordance with local and federal guidelines for ethical and humane use of animals and has been reviewed and approved by the Brown University Institutional Animal Care and Use Committee. Zebrafish (Danio rerio) embryos were collected and grown to larval stages as previously described. Pelkowski et al., Behav Brain Res 223, 135-144 (2011). Adult wild-type zebrafish are maintained at Brown University as a genetically-diverse outbred strain in a mixed male and female population. […] Embryos and larvae were kept on a 12 hour light/12 hour dark cycle and were randomly assigned to different experimental groups prior to experimental manipulation. The sex of embryos and larvae cannot be determined at such early stages because zebrafish use elusive polygenic factors for sex determination, and both males and females have juvenile ovaries between 2.5 and 4 weeks of development. Zebrafish larvae were imaged at 5 dpf when the larvae display a range of locomotor behaviors and consume nutrients available in the yolk sac. Clift et al., Zebrafish 11, 455-461 (2014). Larvae are approximately 4 mm long at the 5 dpf stage. Pharmacological treatments. Zebrafish larvae were treated with 190 FDA-approved compounds using a Tocris small-molecule library (Tocris Bioscience, Cat. No. 7200). […] Larvae were first treated in a Petri dish for 2 hours, transferred with the treatment solution to white 96-well ProxiPlates (PerkinElmer, 6006290) for 1 hour, and then imaged in the treatment solution for 3 hours. Imaging system. Zebrafish larvae were imaged in an imaging system that holds four 96-well plates for automated analysis of behavior in a 384-well format (FIG. 1). Briefly, the imaging system is housed in a 28.5° C. temperature-controlled cabinet where larvae in white 96-well ProxiPlates are placed onto a glass stage. Above the stage, a high-resolution camera (18-megapixel Canon EOS Rebel T6 with an EF-S 55-250 mm f/4.0-5.6 IS zoom lens) captures an image of the larvae in the four 96-well plates every 6 seconds. The camera is connected to a continuous power supply (Canon ACK-E10 AC Adapter) and controlled by a laptop computer using Canon's Remote Capture software (EOS Utility, version 3), which is included with the camera. Two small speakers (OfficeTec USB Computer Speakers Compact 2.0 System) were attached speaker-side down to the glass stage. Speakers were connected by USB to the laptop computer and set to maximum volume. […] Behavioral assay. Visual and acoustic stimuli are controlled by an automated 3-hour PowerPoint presentation that is shown to the larvae. […] Larvae were not exposed to visual stimuli and acoustic stimuli at the same time. The visual stimuli consisted of a series of moving lines that were red, green or blue. Prior studies have shown that zebrafish larvae will swim in the same direction as moving lines, a behavior that is called an optomotor response or OMR (19, 28). Our previously-developed assays for visually-guided behaviors indicate 5 dpf larvae consistently respond to 1 mm thick lines set 7 mm apart that move 7 mm per 8 seconds downwards or upwards, alternating direction in 10-minute periods (19). Additionally, the presentation included red lines that moved at a faster speed of 7 mm per 0.5 seconds (16× faster). […]

[4] = 5 μM proINDY, 5 dpf acute, vs DMSO
[5] = 5 dpf acute exposure, vs DMSO, 10 μM CsA, 1 μM FK506, 1 μM rapamycin, proINDY

Row | SMILES | larval survival ([1]; developmental exposures to 10 μM proINDY) | OMR RGB ([1]; exposure 2-3 dpf) | late activity (period 15) ([1]; exposure 2-3 dpf) | startle responses (20-second interval) ([1]; exposure 3-4 dpf) | OMR RGB ([1]; exposure 4-5 dpf) | late activity (period 15) ([1]; exposure 4-5 dpf) | early activity (first hour of imaging) [2, 4] | late activity (period 15) [2, 4] | late activity (period 15) ([2]; 10 μM proINDY, 5 dpf acute, vs DMSO) | optomotor response (OMR) ([2]; 5 dpf acute exposure, vs DMSO) | early activity (first hour of imaging) [2, 5] | late activity (period 15) [2, 5] | activity ([2]; 5 dpf acute exposure, vs DMSO, 10 μM CsA, 1 μM FK506, proINDY 5 or 10 μM) | optomotor response to fast red lines ([2]; 5 dpf acute, lines 16x faster) | excitability (acoustic stimuli at 1-second intervals) ([2]; 5 dpf acute, vs DMSO) | startle responses to acoustic stimuli at 20-second intervals ([2]; 5 dpf acute, vs DMSO) | optomotor response to red lines ([2]; 5 dpf acute, vs DMSO, proINDY 5 μM) | activity [3] | optomotor response (OMR) [3] | excitability (E) in response to acoustic stimuli at 1-second intervals [3]
1 | CCN1/C(=C/C(C)=O)Sc2ccc(OC(C)=O)cc21 [proINDY, ProINDY] | affected larval survival | decrease in OMR RGB | decreased activity | decrease startle responses | decrease in OMR RGB | increased activity | reduced early and late activity | reduced early and late activity | reduced late activity only | increased optomotor responses; also recorded: increase in the optomotor response | decrease in early activity | decreased activity | decreased activity; also recorded: decrease in activity | increase in the optomotor response | increased excitability | slightly elevated | increased optomotor response | – | – | –
2 | Brc1c(NC2=NCCN2)ccc2nccnc12 [UK 14,304] | – | – | – | – | – | – | – | – | – | – | – | – | – | – | – | – | – | decrease in activity | increase in optomotor responses | –
3 | CCCCC1=NC2(CCCC2)C(=O)N1Cc1ccc(-c2ccccc2-c2nnn[nH]2)cc1 [Irbesartan] | – | – | – | – | – | – | – | – | – | – | – | – | – | – | – | – | – | increased activity | decreased optomotor responses | did not increase excitability; also recorded: does not increase excitability
